From patent publication US10618903B2, “Heteroaryl substituted aminopyridine compounds” (BRISTOL-MYERS SQUIBB COMPANY, priority 2015, dated 2020) come the findings set out here.

The subject of one data set is Caco-2 cells. The experiment in a line: Caco Permeability Assay. In kind it is in vitro ADME. The settings on record: Caco-2 cells, 3 μM compound. Background: Passage across Caco-2 layers is used to estimate intestinal permeability.
For data set [1], the system named is IL-6 levels in human whole blood stimulated with a TLR2 agonist. Kind of data set: IRAK4 Whole Blood Assay (lipoteichoic acid/TLR2-stimulated IL-6). The format is cell-based. Particulars: lipoteichoic acid 10 μg/mL, IL-6 readout. The gist of the method: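 ACD-A-anticoagulated human whole blood was preincubated with compounds for 60 min at 37 °C under 5% CO2. It was then stimulated with 10 μg/mL lipoteichoic acid (final) in RPMI for 5 h. IL-6 in plasma supernatants was measured by flow cytometry bead assay.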

A further data set deals with IRAK4 (Homo sapiens (Human), UniProt Q9NWZ3). Kind of data set: IRAK4 Inhibition Assay. In kind it is biochemical. The settings on record: ATP 500 μM; IRAK4 0.6 nM. The gist of the method: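 Enzyme 0.6 nM, ATP 500 μM, FL-peptide 1.5 μM, DMSO 1.6%; HEPES pH 7.2/MgCl2/Brij 35/DTT buffer. RT, 60 min, EDTA stop. Mobility-shift product/substrate ratio; % inhib vs no-enzyme and vehicle controls.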

Another data set can be described thus: Caco Permeability Assay. In kind it is in vitro ADME. Particulars: human, Caco-2, Caco-2 cells, 3 μM compound.

pEC50, pIC50: −log10 of the molar value. Bounds are passed on as bounds.

As a reminder, the pEC50 is the EC50 on a negative log10 scale, so that one unit is a factor of ten. Read a high pEC50 as a small EC50. A word on the pIC50: it is the IC50 on a negative log10 scale, so that one unit is a factor of ten. By Papp is commonly meant the rate of passage across a membrane or cell layer, normalised by area and donor concentration. Low readings indicate poor permeation, high ones ready permeation.

Sequence of IRAK4 (Q9NWZ3 whole entry): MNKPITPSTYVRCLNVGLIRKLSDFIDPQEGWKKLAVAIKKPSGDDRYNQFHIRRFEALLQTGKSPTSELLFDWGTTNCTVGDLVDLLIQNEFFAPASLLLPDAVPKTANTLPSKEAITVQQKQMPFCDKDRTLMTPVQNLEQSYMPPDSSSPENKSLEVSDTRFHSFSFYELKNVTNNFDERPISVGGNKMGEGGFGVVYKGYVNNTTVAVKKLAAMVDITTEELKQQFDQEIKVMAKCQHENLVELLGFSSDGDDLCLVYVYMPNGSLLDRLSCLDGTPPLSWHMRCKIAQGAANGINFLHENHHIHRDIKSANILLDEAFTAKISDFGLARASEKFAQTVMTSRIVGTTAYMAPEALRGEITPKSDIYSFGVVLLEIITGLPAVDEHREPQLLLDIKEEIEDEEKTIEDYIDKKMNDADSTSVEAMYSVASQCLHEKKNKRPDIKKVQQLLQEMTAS

With `CC(C)(O)[C@H](F)CNC(=O)c1cnc(-c2cnn3cc(Cl)cnc23)cc1NCCC(F)(F)F` [Example 46, (R)-6-(6-chloropyrazolo[1,5-a]pyrimidin-3-yl)-N-(2-fluoro-3-hydroxy-3-methylbutyl)-4-((3,3,3-trifluoropropyl)amino) nicotinamide], in the data set on Caco-2 cells, the “Caco-2 Permeability” value was determined as 24.1 ×10⁻⁶ cm/s. The same compound gave a negative logarithm of the EC50 (pEC50) in data set [1] of 5.71. In addition, on IRAK4, the pIC50 is 8.30.
For `CCCNc1cc(-c2cnn3cc(Cl)cnc23)ncc1C(=O)NC[C@@H](F)C(C)(C)O` [Example 66, (R)-6-(6-chloropyrazolo[1,5-a]pyrimidin-3-yl)-N-(2-fluoro-3-hydroxy-3-methylbutyl)-4-(propylamino)nicotinamide], the “Caco-2 Permeability” value with Caco-2 cells is 21.2 ×10⁻⁶ cm/s. Moreover, the pIC50 on IRAK4 was 8.52.
For `CC(C)(O)[C@H](F)CNC(=O)c1cnc(-c2cnn3cc(Cl)cnc23)cc1NC1CCC(F)C1` (stereo partly drawn) [Example 84, 6-(6-chloropyrazolo[1,5-a]pyrimidin-3-yl)-N—((R)-2-fluoro-3-hydroxy-3-methylbutyl)-4-((3-fluorocyclopentyl)amino)nicotinamide], in the data set on Caco-2 cells, the “Caco-2 Permeability” value is 12 ×10⁻⁶ cm/s. The negative logarithm of the EC50 (pEC50) in data set [1] was 6.49. The pIC50 at IRAK4 is 8.70.
With `CCCNc1cc(-c2cnn3cc(Cl)cnc23)ncc1C(=O)NC[C@@H](F)C(C)(C)O` [Example 159, (R)-6-(6-chloropyrazolo[1,5-a]pyrimidin-3-yl)-N-(2-fluoro-3-hydroxy-3-methylbutyl)-4-(propylamino)nicotinamide], the “Caco-2 Permeability” value in the data set with Caco-2 cells amounted to 9.5 ×10⁻⁶ cm/s. The same compound gave a pEC50 in data set [1] (Homo sapiens) of 6.00.
As for `CC1(Nc2cc(-c3cnc4cc(Cl)cnn34)ncc2C(=O)NC[C@H](F)C(C)(C)O)CC1` [Example 207, (S)-6-(7-chloroimidazo[1,2-b]pyridazin-3-yl)-N-(2-fluoro-3-hydroxy-3-methylbutyl)-4-((1-methylcyclopropyl)amino)nicotinamide], the “Caco-2 Permeability” value in the data set with Caco-2 cells was 9.7 ×10⁻⁶ cm/s. This compound showed a pEC50 in data set [1] of 6.59.
For `CC(C)(O)[C@H](F)CNC(=O)c1cnc(-c2cnn3cc(C#N)cnc23)cc1Nc1cnn(CC(F)(F)F)c1` [Example 241, (R)-6-(6-cyanopyrazolo[1,5-a]pyrimidin-3-yl)-N-(2-fluoro-3-hydroxy-3-methylbutyl)-4-((1-(2,2,2-trifluoroethyl)-1H-pyrazol-4-yl)amino)nicotinamide], in the data set on Caco-2 cells, the “Caco-2 Permeability” value was under 1.5 ×10⁻⁶ cm/s. Besides, the negative-log EC50 (pEC50) in data set [1] was 6.89. The pIC50 on IRAK4 was 8.70.
Consider `CCn1cc(Nc2cc(-c3cnc4cc(C#N)cnn34)ncc2C(=O)NC[C@@H](F)C(C)(C)O)cn1` [Example 267, (R)-6-(7-cyanoimidazo[1,2-b]pyridazin-3-yl)-4-((1-ethyl-1H-pyrazol-4-yl)amino)-N-(2-fluoro-3-hydroxy-3-methylbutyl)nicotinamide], for which the Papp at 2 h, 3 µM in the data set “Caco Permeability Assay” is under 1.5 ×10⁻⁶ cm/s. The same compound gave a negative-log EC50 (pEC50) in data set [1] (Homo sapiens) of 6.89. Besides, the pIC50 at IRAK4 was 8.70.
In the case of `CC(C)(O)[C@H](F)CNC(=O)c1cnc(-c2cnc3cc(Cl)cnn23)cc1Nc1cnn(C(F)F)c1` [Example 270, (R)-6-(7-chloroimidazo[1,2-b]pyridazin-3-yl)-4-((1-(difluoromethyl)-1H-pyrazol-4-yl)amino)-N-(2-fluoro-3-hydroxy-3-methylbutyl) nicotinamide], in “Caco Permeability Assay”, the Papp at 2 h, 3 µM turned out to be 7.8 ×10⁻⁶ cm/s. The compound further showed a pEC50 in data set [1] (Homo sapiens) of 6.09. Also, the pIC50 at IRAK4 was 8.52.
In turn, `CC(C)(O)[C@H](F)CNC(=O)c1cnc(-c2cnc3cc(Cl)cnn23)cc1Nc1cnn(C2CC(F)(F)C2)c1` [Example 277, (R)-6-(7-chloroimidazo[1,2-b]pyridazin-3-yl)-4-((1-(3,3-difluorocyclobutyl)-1H-pyrazol-4-yl)amino)-N-(2-fluoro-3-hydroxy-3-methylbutyl)nicotinamide] showed a Papp at 2 h, 3 µM in “Caco Permeability Assay” of 3.6 ×10⁻⁶ cm/s. The compound also showed a negative-log EC50 (pEC50) in data set [1] (Homo sapiens) of 6.31. Further, the negative logarithm of the IC50 (pIC50) on IRAK4 is 8.70.
Take `CCCn1cc(Nc2cc(-c3cnc4cc(C#N)cnn34)ncc2C(=O)NC[C@@H](F)C(C)(C)O)cn1` [Example 278, (R)-6-(7-cyanoimidazo[1,2-b]pyridazin-3-yl)-N-(2-fluoro-3-hydroxy-3-methylbutyl)-4-((1-propyl-1H-pyrazol-4-yl)amino)nicotinamide]: the Papp at 2 h, 3 µM in “Caco Permeability Assay” was under 1.5 ×10⁻⁶ cm/s. The pEC50 in data set [1] (Homo sapiens) is 6.44. The pIC50 at IRAK4 was 9.00.
The compound `CC(C)(F)Cn1cc(Nc2cc(-c3cnc4cc(C#N)cnn34)ncc2C(=O)NC[C@@H](F)C(C)(C)O)cn1` [Example 279, (R)-6-(7-cyanoimidazo[1,2-b]pyridazin-3-yl)-4-((1-(2-fluoro-2-methylpropyl)-1H-pyrazol-4-yl)amino)-N-(2-fluoro-3-hydroxy-3-methylbutyl)nicotinamide] had an apparent permeability coefficient (Papp) at 2 h, 3 µM in “Caco Permeability Assay” of under 1.5 ×10⁻⁶ cm/s. For the same compound, the pEC50 in data set [1] (Homo sapiens) is 6.11. Besides, the pIC50 at IRAK4 is 9.00.
The like results for `CC(C)(O)[C@H](F)CNC(=O)c1cnc(-c2cnc3cc(C#N)cnn23)cc1Nc1cc2n(n1)CCN(CC(F)F)C2` [Example 280, (R)-6-(7-cyanoimidazo[1,2-b]pyridazin-3-yl)-4-((5-(2,2-difluoroethyl)-4,5,6,7-tetrahydropyrazolo[1,5-a]pyrazin-2-yl)amino)-N-(2-fluoro-3-hydroxy-3-methylbutyl)nicotinamide] were, in that order, under 1.5 ×10⁻⁶ cm/s, 6.48 and 8.22.
As to `CC(C)(O)[C@H](F)CNC(=O)c1cnc(-c2cnc3cc(C#N)cnn23)cc1Nc1cnn(CCCF)c1` [Example 281, (R)-6-(7-cyanoimidazo[1,2-b]pyridazin-3-yl)-N-(2-fluoro-3-hydroxy-3-methylbutyl)-4-((1-(3-fluoropropyl)-1H-pyrazol-4-yl)amino)nicotinamide], the Papp at 2 h, 3 µM in the data set “Caco Permeability Assay” was under 1.5 ×10⁻⁶ cm/s. The negative logarithm of the EC50 (pEC50) in data set [1] (Homo sapiens) was 6.54. In addition, the pIC50 on IRAK4 is 8.70.
For `CC(C)(O)[C@H](F)CNC(=O)c1cnc(-c2cnc3cc(C#N)cnn23)cc1Nc1cnn(C2CC2)c1` [Example 284, (R)-6-(7-cyanoimidazo[1,2-b]pyridazin-3-yl)-4-((1-cyclopropyl-1H-pyrazol-4-yl)amino)-N-(2-fluoro-3-hydroxy-3-methylbutyl)nicotinamide] the same measures were under 1.5 ×10⁻⁶ cm/s, 6.68 and 8.70.
In the case of `CC(C)(O)[C@H]1CC[C@H](NC(=O)c2cnc(-c3cnc4cc(C#N)cnn34)cc2Nc2cnn(C3CC3)c2)CC1` [Example 286, 6-(7-cyanoimidazo[1,2-b]pyridazin-3-yl)-4-((1-cyclopropyl-1H-pyrazol-4-yl)amino)-N-((1r,4r)-4-(2-hydroxypropan-2-yl)cyclohexyl) nicotinamide], the Papp at 2 h, 3 µM in the data set “Caco Permeability Assay” worked out at 5.5 ×10⁻⁶ cm/s. Besides, the negative-log EC50 (pEC50) in data set [1] (Homo sapiens) was 6.74. Further, on IRAK4, the pIC50 was 8.70.
For `CC(C)n1cc(Nc2cc(-c3cnc4cc(C#N)cnn34)ncc2C(=O)NCCC(C)(C)O)cn1` [Example 287, 6-(7-cyanoimidazo[1,2-b]pyridazin-3-yl)-N-(3-hydroxy-3-methylbutyl)-4-((1-isopropyl-1H-pyrazol-4-yl)amino)nicotinamide], the Papp at 2 h, 3 µM in the data set “Caco Permeability Assay” was 1.8 ×10⁻⁶ cm/s. For the same compound, the pEC50 in data set [1] (Homo sapiens) was 6.35. Besides, the negative logarithm of the IC50 (pIC50) on IRAK4 was 8.05.
